Results: patent US20240262832A1, “SMALL MOLECULE MODULATORS OF GLUCOCEREBROSIDASE ACTIVITY AND USES THEREOF” (Vanqua Bio, Inc., priority 2021, published 2024)

Biological target: T1, GCase (Homo sapiens, UniProt P04062)
T1 construct: endogenous in cells; host or cells: HeLa cells
T1 sequence (P04062 40-536): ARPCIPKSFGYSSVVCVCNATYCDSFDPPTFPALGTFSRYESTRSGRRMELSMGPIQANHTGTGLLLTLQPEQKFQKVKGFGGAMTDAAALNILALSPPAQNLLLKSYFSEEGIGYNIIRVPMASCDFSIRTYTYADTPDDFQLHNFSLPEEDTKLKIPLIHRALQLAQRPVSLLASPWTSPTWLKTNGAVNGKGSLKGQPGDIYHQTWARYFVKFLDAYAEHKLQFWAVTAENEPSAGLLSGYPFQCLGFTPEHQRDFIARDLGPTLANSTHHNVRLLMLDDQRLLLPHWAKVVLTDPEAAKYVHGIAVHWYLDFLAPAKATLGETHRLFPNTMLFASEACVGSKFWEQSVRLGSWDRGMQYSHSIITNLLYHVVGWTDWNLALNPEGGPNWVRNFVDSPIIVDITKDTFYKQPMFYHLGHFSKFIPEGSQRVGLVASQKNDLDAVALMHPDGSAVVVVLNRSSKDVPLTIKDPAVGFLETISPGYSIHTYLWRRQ
Test: activation of GCase in a live cell PFB assay in HELA cells
Format: cell-based

Structure (SMILES) | EC50 [µM]
COc1ccc(OCC2CCN(C(=O)Nc3cccc(CN)c3)CC2)cc1 [Compound 442] | > 100
O=C(c1ccc(Cn2cccn2)o1)N1CCC(OCc2ccccc2)CC1 [Compound 449] | > 100
COc1ccc(OCC2CCN(C(=O)c3ccc(CN4CCCC4)o3)CC2)cc1 [Compound 457] | > 100
CC(C)c1cc(C(=O)N2C[C@@H]3[C@@H](COc4cccnc4C(F)(F)F)[C@@H]3C2)[nH]n1 [Compound 110, (1R,5S,6R)-3-[3-(Propan-2-yl)-1H-pyrazole-5-carbonyl]-6-({[2-(trifluoromethyl)pyridin-3-yl]oxy}methyl)-3-azabicyclo[3.1.0]hexane] | 50 to 100
CCc1nc(CNC(=O)N2CCC(COc3ccc(OC)cc3)CC2)no1 [Compound 460] | 50 to 100
COc1ccc(OCC2CCN(C(=O)COCC3CCCO3)CC2)cc1 (stereo not shown) [Compound 422] | 10 to 50
Cn1c(-c2ccccc2)c(C(=O)N2CCCC(COc3ccccc3OC(F)(F)F)C2)c2nccnc21 (stereo not shown) [Compound 236, (5-Methyl-6-phenyl-5H-pyrrolo[2,3-b]pyrazin-7-yl)(3-((2-(trifluoromethoxy)phenoxy)methyl)piperidin-1-yl)methanone] | 10 to 50
CC(C)(c1ccccc1)c1nnc(C(=O)N2CCCC(COc3ccccc3)C2)o1 (stereo not shown) [Compound 24, (3-(Phenoxymethyl)piperidin-1-yl)(5-(2-phenylpropan-2-yl)-1,3,4-oxadiazol-2-yl)methanone] | 10 to 50
CCc1nc(CN2CCC(COc3ccc(OC)cc3)CC2)no1 [Compound 470] | > 100
Cc1ccccc1OCC1CCCN(C(=O)c2cnc3c(cnn3-c3ccccc3)n2)C1 (stereo not shown) [Compound 67, (1-phenyl-1H-pyrazolo[3,4-b]pyrazin-5-yl)(3-((o-tolyloxy)methyl)piperidin-1-yl)methanone] | 10 to 50
COc1ccc(OCC2CCN(CC(C)(C)N3CCOCC3)CC2)cc1 [Compound 467] | > 100
O=c1[nH]c(N2CCC[C@H](COc3cccnc3C(F)(F)F)C2)cc2c1cnn2CC(F)F [Compound 306, (S)-1-(2,2-difluoroethyl)-6-(3-(((2-(trifluoromethyl)pyridin-3-yl)oxy)methyl)piperidin-1-yl)-1,5-dihydro-4H-pyrazolo[4,3-c]pyridin-4-one] | > 100
FC(F)(F)c1cccc(OCC2CN(c3cncc(-c4nncs4)n3)CCC2(F)F)n1 (stereo not shown) [Compound 64, 2-[4,4-Difluoro-3-({[6-(trifluoromethyl)pyridin-2-yl]oxy}methyl)piperidin-1-yl]-6-(1,3,4-thiadiazol-2-yl)pyrazine] | 10 to 50
O=C(c1ccc2cc[nH]c2c1)N1CCC(COc2ccccc2)CC1 [Compound 416, 6-[4-(Phenoxymethyl)piperidine-1-carbonyl]-1H-indole] | 10 to 50
FC(F)Cn1ncc2ncc(N3CCC(COc4cc(C(F)(F)F)ccn4)CC3)nc21 [Compound 324, 2-({1-[1-(2,2-Difluoroethyl)-1H-pyrazolo[3,4-b]pyrazin-6-yl]piperidin-4-yl}methoxy)-4-(trifluoromethyl)pyridine] | 10 to 50
CCc1cnc(C)nc1N1CCC(COc2ccc(OC)cc2)CC1 [Compound 475] | 10 to 50
O=C(C(c1ccccc1)c1ccccc1)N1CCC(Oc2ccc(C(F)(F)F)cn2)CC1 [Compound 387] | 10 to 50

Now from value to compound:

EC50 [µM] | Structure (SMILES)
< 10 | COCCn1ncc2ncc(N3CC(COc4cccnc4C(F)(F)F)CCC3C)nc21 (stereo not shown) [Compound 123, 1-(2-Methoxyethyl)-6-(2-methyl-5-(((2-(trifluoromethyl)pyridin-3-yl)oxy)methyl)piperidin-1-yl)-1H-pyrazolo[3,4-b]pyrazine]
10 to 50 | CC(C)Sc1ccc(CC(=O)N2CCC(Oc3ncccc3C#N)CC2)cc1 [Compound 369]
< 10 | CCCCC[C@H]1CC[C@H](C(=O)N2CCCC(COc3ccccc3)C2)CC1 (stereo partly shown) [Compound 178]
< 10 | C[C@H](Oc1cccnc1C(F)(F)F)[C@H]1CCCN(c2cncc(-c3nncs3)n2)C1 [Compound 45a, 2-(6-((S)-3-((S)-1-((2-(Trifluoromethyl)pyridin-3-yl)oxy)ethyl)piperidin-1-yl)pyrazin-2-yl)-1,3,4-thiadiazole]
10 to 50 | CCc1ncc(C(=O)N2CCC(COc3ccc4c(c3)CCC4)CC2)cn1 [Compound 426]
10 to 50 | COc1ccc(OCC2CCN(c3nc(C)ncc3Cl)CC2)cc1 [Compound 421]
< 10 | FC(F)Cn1ncc2ncc(N3C[C@H](COc4cccnc4C(F)(F)F)C[C@@H](OC(F)F)C3)nc21 [Compound 299b, 1-(2,2-Difluoroethyl)-6-((3R,5R)-3-(difluoromethoxy)-5-(((2-(trifluoromethyl)pyridin-3-yl)oxy)methyl)piperidin-1-yl)-1H-pyrazolo[3,4-b]pyrazine]
10 to 50 | FC(F)Cn1ncc2ncc(N3CC4CC4(COc4cccnc4C(F)(F)F)C3)nc21 (stereo not shown) [Compound 260, 3-[1-(2,2-Difluoroethyl)-1H-pyrazolo[3,4-b]pyrazin-6-yl]-1-({[2-(trifluoromethyl)pyridin-3-yl]oxy}methyl)-3-azabicyclo[3.1.0]hexane]
10 to 50 | FC(F)Cn1ncc2ncc(N3C[C@@H]4[C@@H](COc5cnccc5C(F)(F)F)[C@@H]4C3)nc21 [Compound 91, (1R,5S,6S)-3-[1-(2,2-difluoroethyl)-1H-pyrazolo[3,4-b]pyrazin-6-yl]-6-({[4-(trifluoromethyl)pyridin-3-yl]oxy}methyl)-3-azabicyclo[3.1.0]hexane]
< 10 | FC(F)Cn1ncc2ncc(N3CCC(OC4CN(c5cccnc5C(F)(F)F)C4)CC3)nc21 [Compound 329, 1-(2,2-Difluoroethyl)-6-(4-((1-(2-(trifluoromethyl)pyridin-3-yl)azetidin-3-yl)oxy)piperidin-1-yl)-1H-pyrazolo[3,4-b]pyrazine]
10 to 50 | C[C@@H]1CC[C@H](COc2ccnc(C(F)(F)F)c2)CN1c1cnc2cnn(CC(F)F)c2n1 [Compound 278, 1-(2,2-Difluoroethyl)-6-((2R,5S)-2-methyl-5-(((2-(trifluoromethyl)pyridin-4-yl)oxy)methyl)piperidin-1-yl)-1H-pyrazolo[3,4-b]pyrazine]
10 to 50 | O=C(c1cnc2c(cnn2-c2ccccc2)n1)N1CCCC(COc2cccnc2C(F)(F)F)C1 (stereo not shown) [Compound 103, (1-Phenyl-1H-pyrazolo[3,4-b]pyrazin-5-yl)(3-(((2-(trifluoromethyl)pyridin-3-yl)oxy)methyl)piperidin-1-yl)methanone]
10 to 50 | C[C@@H]1[C@H](C(=O)N2CCCC(COc3ccccc3)C2)CCN1c1ccccc1 (stereo partly shown) [Compound 199]
10 to 50 | Cn1c(-c2ccc(F)cc2)nc2ncc(C(=O)N3CCCC(COc4cccnc4C(F)(F)F)C3)nc21 (stereo not shown) [Compound 96, (2-(4-Fluorophenyl)-1-methyl-1H-imidazo[4,5-b]pyrazin-6-yl)(3-(((2-(trifluoromethyl)pyridin-3-yl)oxy)methyl)piperidin-1-yl)methanone]
< 10 | C[C@@H]1CC[C@@H](COc2cccnc2C(F)(F)F)CN1c1cnc2cnn(CC(F)F)c2n1 [Compound 79, 1-(2,2-Difluoroethyl)-6-((2R,5R)-2-methyl-5-(((2-(trifluoromethyl)pyridin-3-yl)oxy)methyl)piperidin-1-yl)-1H-pyrazolo[3,4-b]pyrazine]
< 10 | FC(F)Cn1ncc2ncc(N3CCC(COc4cccnc4C(F)(F)F)CC3)nc21 [Compound 323, 3-({1-[1-(2,2-Difluoroethyl)-1H-pyrazolo[3,4-b]pyrazin-6-yl]piperidin-4-yl}methoxy)-2-(trifluoromethyl)pyridine]
10 to 50 | O=C(c1ccc2cc[nH]c2c1)N1CCC(Oc2ccnc(C(F)(F)F)c2)CC1 [Compound 319, (1H-Indol-6-yl)(4-((2-(trifluoromethyl)pyridin-4-yl)oxy)piperidin-1-yl)methanone]
10 to 50 | COc1ccc(OCCCC(=O)N2CCCC(COc3ccccc3)C2)cc1 (stereo not shown) [Compound 12]
10 to 50 | Cc1ccccc1OCC1CCCN(C(=O)c2cn(C)c3ccn(-c4ccccc4)c(=O)c23)C1 (stereo not shown) [Compound 38, 1-Methyl-5-phenyl-3-(3-((o-tolyloxy)methyl)piperidine-1-carbonyl)-1,5-dihydro-4H-pyrrolo[3,2-c]pyridin-4-one]
< 10 | CC1CC(COc2cccnc2C(F)(F)F)CN(c2cnc3cnn(CC(F)(F)F)c3n2)C1 (stereo not shown) [Compound 127, 6-(3-Methyl-5-(((2-(trifluoromethyl)pyridin-3-yl)oxy)methyl)piperidin-1-yl)-1-(2,2,2-trifluoroethyl)-1H-pyrazolo[3,4-b]pyrazine]
< 10 | C[C@H]1CC[C@@H](COc2cccnc2C(F)(F)F)CN1c1cnc2cnn(CC(F)F)c2n1 [Compound 77, 1-(2,2-Difluoroethyl)-6-((2S,5R)-2-methyl-5-(((2-(trifluoromethyl)pyridin-3-yl)oxy)methyl)piperidin-1-yl)-1H-pyrazolo[3,4-b]pyrazine]
< 10 | FC(F)Cn1ncc2ncc(N3CCC(F)(F)C(COc4cccnc4C(F)(F)F)C3)nc21 (stereo not shown) [Compound 20, 3-({1-[1-(2,2-difluoroethyl)-1H-pyrazolo[3,4-b]pyrazin-6-yl]-4,4-difluoropiperidin-3-yl}methoxy)-2-(trifluoromethyl)pyridine]
< 10 | FC(F)(F)c1cccc(OC[C@@H]2[C@H]3CN(c4cncc(-c5nncs5)n4)C[C@@H]23)n1 [Compound 60, (1R,5S,6S)-3-[6-(1,3,4-thiadiazol-2-yl)pyrazin-2-yl]-6-({[6-(trifluoromethyl)pyridin-2-yl]oxy}methyl)-3-azabicyclo[3.1.0]hexane]
